Laboratory results taken from US20130302889A1, “Differentiation of Bone Marrow Cells into Neuronal Cells and Uses Therefor” (Philadelphia Health and Education Corporation, priority 2002, published 2013).
“Also recorded” adds a separate entry of the source.

Columns and labels:
rMSCs [1] = assay: Neuronal differentiation of rMSCs (morphology); assay type: cell-based, rat; conditions: for neuronal morphologies elicited by anti-oxidant treatment: alone and in combination, time course similar to BME
Procedure: Rat MSCs were originally cultured in alpha-Modified Eagle's Medium (alpha-MEM) supplemented with 20% FBS, 2 mM L-glutamine, 100 units per milliliter penicillin, […] streptomycin and 25 nanogramps per milliliter amphotericin B. For each passage the cells were plated at about 8,000 cells per square centimeter and grown to confluency. At passage 6 the cells were transferred to DMEM (pH 8.0)/20% FBS without additional supplementation, and maintained beyond passage 14. The rat MSCs were obtained with a protocol and procedures approved by the Institutional IACUC. The human samples were obtained from volunteers with informed consent and according to a protocol approved by the Institutional Review Board.
To induce the neuronal phenotype, rMSCs were initially maintained in sub-confluent cultures in media supplemented with 1 mM beta-mercaptoethanol (BME) for 24 hours. […] To effect neuronal differentiation, the cells were transferred to serum-free medium containing 1-10 millimolar BME (SFM/BME). […] Within 60 minutes of exposure to SFM/BME changes in morphology of some of the rMSCs were apparent (FIG. 2C). Responsive cells progressively assumed neuronal morphological characteristics over the first 3 hours. Initially, cytoplasm in the flat rMSCs retracted towards the nucleus, forming a contracted multipolar, cell body, leaving membranous, process-like extensions peripherally (0-90 minutes).
To begin examining the hypothesis that the anti-oxidant properties of BME mediated induction of neuronal differentiation in MSCs, rMSCs were treated with other anti-oxidants, e.g., dimethylsulfoxide (DMSO), butylated hydroxyanisole (BHA), or butylated hydroxytoluene (BHT), ascorbic acid, dimethylfumarate, n-acetylcysteine, and the like, both alone and in combination with each other.

rMSCs [2] = assay: Western blot for NSE in rMSC cultures; assay type: cell-based, rat; conditions: 5 hours post BME treatment, versus uninduced rMSCs
Procedure: […] of protein extract from untreated (U) and BME-induced (I) rMSC cultures was separated on a 4%-20% gradient acrylamide gel and electrophoretically transferred to a nylon membrane. The Western blot was probed for tubulin, expression using an anti-tubulin monoclonal antibody (Sigma Chemical Co., St. Louis, Mo.) followed by secondary antibody conjugated with horse radish peroxidase (HRP). Color development was performed using enhanced chemiluminescence reagents (Amersham, Piscataway, N.J.). The blot was then stripped and probed for NSE expression using anti-NSE polyclonal antibody (ICN). Again, the secondary antibodies were HRP-conjugated, and color was developed using ECL reagents, […]

rMSC clones = assay: Differentiation of clonal rMSC lines; assay type: cell-based, rat; conditions: after BME treatment
Procedure: To establish clones, rMSCs were plated at approximately 10 cells per square centimeters, grown to 50-150 cells per colony, isolated with cloning cylinders, transferred to separate wells and eventually to individual flasks.

rMSCs [3] = assay: Immunocytochemistry for neuronal markers in treated rMSCs; assay type: cell-based, rat
Procedure: Cultured rMSCs were fixed with 4% paraformaldehyde, incubated with primary antibody overnight at 4° C., incubated with secondary antibody for one hour, followed by exposure to avidin-biotin complex for one hour at 25° C. Diaminobenzidene (DAB) served as chromogenic substrate for HRP.
To further characterize potential neuronal differentiation, BME-treated cultures were stained to detect expression of the neuronal marker neuron-specific enolase (NSE). Unresponsive, flat rMSCs expressed very low, but detectable, levels of NSE protein, consistent with previous detection of minute amounts of protein and/or message in cells of bone marrow origin (Pechumer et al., 1993, Lab. Invest. 89:743-749; Reid et al., 1991, Clin. Pathol. 44:483-486; vanObberghen et al., 1988, J. Neurosci. Res. 19:450-456).

hMSCs = assay: Neuronal differentiation of human MSCs; assay type: cell-based
Procedure: Cells from passage two were subjected to the neuronal differentiation protocol and stained for NSE or NF-M expression. […] Contracted cell bodies elaborated processes and stained strongly for NSE expression within 3 hours (FIGS. 8A and 8B). Transitional cells were also evident ( ? ). […] Growth cone morphologies with filopodial extensions ( ? ) were clearly evident on the processes elaborated by paired neurons depicted in the image in FIG. 8C.

SMILES: Cc1cc(C(C)(C)C)c(O)c(C(C)(C)C)c1 [BHT, butylated hydroxytoluene]
- neuronal morphologies elicited by anti-oxidant treatment (rMSCs [1]): elicited neuronal morphologies

SMILES: O=C1O[C@H]([C@@H](O)CO)C(O)=C1O [ascorbic acid]
- neuronal morphologies elicited by anti-oxidant treatment (rMSCs [1]): elicited neuronal morphologies

SMILES: C[S+](C)[O-] [DMSO, dimethylsulfoxide]
- neuronal morphologies elicited by anti-oxidant treatment (rMSCs [1]): elicited neuronal morphologies

SMILES: COc1ccc(O)c(C(C)(C)C)c1 [BHA, butylated hydroxyanisole]
- neuronal morphologies elicited by anti-oxidant treatment (rMSCs [1]): elicited neuronal morphologies

SMILES: OCCS [BME, beta-mercaptoethanol]
- NSE expression (Western blot) (rMSCs [2]): significant increase in NSE expression
- generation of NSE-positive neurons from single-cell clones (rMSC clones): differentiated into NSE-positive neurons; also recorded: generated refractile, process-bearing, NSE-positive cells
- NSE expression (immunostaining) (rMSCs [3]; BME-treated cultures): increased expression of NSE
- time to increased expression of neuronal marker NSE (rMSCs [3]; after treatment): ≤ 30 min
- NF-M expression (immunostaining) (rMSCs [3]; cells exhibiting neuronal morphologies): increased expression of NF-M
- NeuN expression (immunostaining) (rMSCs [3]; differentiated cultures): stained for NeuN expression
- percentage of cells adopting a neuronal morphology (rMSCs [1]; SFM with 1-10 millimolar BME, effect of concentration): increased at higher BME concentrations
- percentage of cells adopting a neuronal morphology (rMSCs [1]; effect of BME pretreatment): enhanced by BME pretreatment
- time to apparent changes in morphology (rMSCs [1]; serum-free medium containing 1-10 millimolar BME (SFM/BME)): ≤ 60 minutes
- changes in morphology (rMSCs [1]; sub-confluent cultures, media supplemented with 1 mM BME for 24 hours): no changes in morphology were evident
- NF-M expression (hMSCs; hMSC-derived neurons): expressed NF-M
- neuronal characteristics and NSE expression (hMSCs; hMSCs passage two, after BME treatment): attained neuronal characterises and increased NSE expression
- time to strong NSE staining (hMSCs; hMSCs, BME treatment): ≤ 3 h

SMILES: CC(=O)N[C@@H](CS)C(=O)O [n-acetylcysteine]
- neuronal morphologies elicited by anti-oxidant treatment (rMSCs [1]): elicited neuronal morphologies
